Data taken from ChEMBL document CHEMBL5226300, “Synthetic Approaches to the New Drugs Approved during 2019” (J Med Chem, 2021).

What was measured:
[1] = biological target: Voltage-dependent calcium channel subunit alpha-2/delta-1 (Homo sapiens) (UniProt P54289); assay: Binding affinity to human alpha2delta1 Voltage-dependent calcium channel assessed as dissociation half life
[2] = biological target: Voltage-dependent calcium channel subunit alpha-2/delta-2 (Homo sapiens) (UniProt Q9NY47)
Description: Binding affinity to human alpha2delta2 Voltage-dependent calcium channel assessed as dissociation half life

[3] = Half life in human; assay type: ADME
[4] = biological target: T1, Sodium/glucose cotransporter 2 (Homo sapiens, UniProt P31639); assay: Inhibition of SGLT2 (unknown origin)
T1 sequence (P31639 whole entry): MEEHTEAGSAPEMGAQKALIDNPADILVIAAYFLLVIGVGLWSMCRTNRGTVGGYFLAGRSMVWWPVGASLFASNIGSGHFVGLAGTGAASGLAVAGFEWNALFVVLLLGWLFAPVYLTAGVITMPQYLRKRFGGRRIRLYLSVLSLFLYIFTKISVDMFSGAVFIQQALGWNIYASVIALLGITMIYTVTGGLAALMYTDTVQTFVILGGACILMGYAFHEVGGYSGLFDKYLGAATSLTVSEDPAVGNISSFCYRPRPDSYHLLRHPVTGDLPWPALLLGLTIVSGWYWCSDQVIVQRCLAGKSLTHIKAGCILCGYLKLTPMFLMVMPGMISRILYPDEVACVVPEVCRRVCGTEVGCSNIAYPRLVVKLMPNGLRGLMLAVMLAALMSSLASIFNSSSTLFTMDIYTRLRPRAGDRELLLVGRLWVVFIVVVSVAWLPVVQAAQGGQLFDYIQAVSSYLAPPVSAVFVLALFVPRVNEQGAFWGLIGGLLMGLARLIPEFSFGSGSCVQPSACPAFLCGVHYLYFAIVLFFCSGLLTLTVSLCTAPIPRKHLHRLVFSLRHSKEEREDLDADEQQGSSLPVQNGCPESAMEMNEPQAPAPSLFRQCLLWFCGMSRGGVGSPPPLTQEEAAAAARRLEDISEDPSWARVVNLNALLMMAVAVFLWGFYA

Chain of Voltage-dependent calcium channel subunit alpha-2/delta-1 (Homo sapiens) (P54289 25-956 limits assumed): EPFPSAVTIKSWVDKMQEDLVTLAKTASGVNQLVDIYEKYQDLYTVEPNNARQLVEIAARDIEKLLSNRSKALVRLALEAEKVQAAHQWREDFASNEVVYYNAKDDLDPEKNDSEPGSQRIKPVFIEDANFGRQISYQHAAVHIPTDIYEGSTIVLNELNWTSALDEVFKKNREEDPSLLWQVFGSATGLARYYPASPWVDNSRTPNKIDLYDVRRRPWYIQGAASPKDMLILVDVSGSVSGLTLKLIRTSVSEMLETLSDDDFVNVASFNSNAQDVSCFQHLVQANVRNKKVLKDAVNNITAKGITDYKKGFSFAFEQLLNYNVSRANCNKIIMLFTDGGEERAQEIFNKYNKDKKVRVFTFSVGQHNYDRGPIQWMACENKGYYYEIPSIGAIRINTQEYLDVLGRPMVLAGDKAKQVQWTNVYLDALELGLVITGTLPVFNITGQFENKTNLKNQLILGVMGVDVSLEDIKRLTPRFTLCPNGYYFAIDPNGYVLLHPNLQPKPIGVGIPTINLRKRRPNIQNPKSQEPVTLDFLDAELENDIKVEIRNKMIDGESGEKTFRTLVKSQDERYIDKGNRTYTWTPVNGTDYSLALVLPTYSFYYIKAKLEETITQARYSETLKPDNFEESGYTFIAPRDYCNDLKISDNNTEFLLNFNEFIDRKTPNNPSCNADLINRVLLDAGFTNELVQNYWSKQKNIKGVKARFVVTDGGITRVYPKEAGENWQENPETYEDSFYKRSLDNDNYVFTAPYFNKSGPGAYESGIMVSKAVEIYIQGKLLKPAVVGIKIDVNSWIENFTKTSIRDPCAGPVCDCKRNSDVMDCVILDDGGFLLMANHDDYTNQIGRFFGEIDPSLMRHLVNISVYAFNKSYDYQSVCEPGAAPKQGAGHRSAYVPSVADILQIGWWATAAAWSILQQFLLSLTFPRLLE
Chain of Voltage-dependent calcium channel subunit alpha-2/delta-1 (Homo sapiens) (P54289 957-1103 limits assumed): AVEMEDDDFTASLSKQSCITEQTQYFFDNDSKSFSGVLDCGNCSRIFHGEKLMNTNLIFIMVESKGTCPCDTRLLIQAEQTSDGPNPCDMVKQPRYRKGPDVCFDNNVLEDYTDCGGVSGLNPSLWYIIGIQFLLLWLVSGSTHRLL
Chain of Voltage-dependent calcium channel subunit alpha-2/delta-2 (Homo sapiens) (Q9NY47 19-1001 limits assumed): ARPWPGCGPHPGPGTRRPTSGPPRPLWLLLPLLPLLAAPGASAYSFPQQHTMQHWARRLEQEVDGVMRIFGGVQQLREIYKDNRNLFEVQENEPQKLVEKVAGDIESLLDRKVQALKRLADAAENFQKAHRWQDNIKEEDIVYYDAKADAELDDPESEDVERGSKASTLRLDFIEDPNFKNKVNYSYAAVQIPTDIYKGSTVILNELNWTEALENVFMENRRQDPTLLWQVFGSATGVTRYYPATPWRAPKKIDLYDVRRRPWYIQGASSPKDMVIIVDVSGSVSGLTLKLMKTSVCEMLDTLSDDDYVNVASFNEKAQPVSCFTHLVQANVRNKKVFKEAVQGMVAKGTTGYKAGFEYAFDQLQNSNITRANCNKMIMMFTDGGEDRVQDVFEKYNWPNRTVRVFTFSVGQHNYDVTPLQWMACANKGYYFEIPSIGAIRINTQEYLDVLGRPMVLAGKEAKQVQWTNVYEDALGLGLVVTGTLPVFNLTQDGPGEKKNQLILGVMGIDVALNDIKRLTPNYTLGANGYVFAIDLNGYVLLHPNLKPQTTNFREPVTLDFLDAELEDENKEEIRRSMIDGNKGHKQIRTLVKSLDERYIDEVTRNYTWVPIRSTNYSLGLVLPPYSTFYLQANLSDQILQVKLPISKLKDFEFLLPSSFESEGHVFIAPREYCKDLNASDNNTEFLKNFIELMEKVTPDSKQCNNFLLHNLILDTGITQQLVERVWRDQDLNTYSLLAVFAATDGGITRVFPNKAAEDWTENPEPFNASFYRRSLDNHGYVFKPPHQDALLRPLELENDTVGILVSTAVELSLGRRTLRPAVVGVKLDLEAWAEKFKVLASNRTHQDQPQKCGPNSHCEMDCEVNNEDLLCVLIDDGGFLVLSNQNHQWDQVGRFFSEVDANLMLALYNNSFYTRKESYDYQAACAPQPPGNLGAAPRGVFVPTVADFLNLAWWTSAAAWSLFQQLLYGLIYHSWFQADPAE
Chain of Voltage-dependent calcium channel subunit alpha-2/delta-2 (Homo sapiens) (Q9NY47 1002-1150 limits assumed): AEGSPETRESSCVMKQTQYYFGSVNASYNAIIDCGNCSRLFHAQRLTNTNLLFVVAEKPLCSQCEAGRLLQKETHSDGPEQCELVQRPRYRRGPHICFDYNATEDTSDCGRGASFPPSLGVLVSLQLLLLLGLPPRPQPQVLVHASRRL

SMILES: CC(C)C[C@H](CN)CC(=O)O
- T1/2 [1]: 1.5 h
- T1/2 [2]: 1.5 h

SMILES: CCOC(=O)OC[C@H]1O[C@@H](Oc2nn(C(C)C)c(C)c2Cc2ccc(OC(C)C)cc2)[C@H](O)[C@@H](O)[C@@H]1O [REMOGLIFLOZIN ETABONATE]
- half-life [3]: 2 h
- Ki [4]: 12.4 nM

SMILES: CCC1=C[C@@H]2[C@H](C1)C[C@]2(CN)CC(=O)O
- T1/2 [1]: > 11 h
